Key:
S. aureus wild type = experiment: Spontaneous mutation control on plectasin plates; type: cell-based, Staphylococcus aureus; settings: S. aureus wild type grown on TSB with 4, 5 or 10 fold MIC of plectasin
Description: The transposon mutant libraries were screened on agar plates for increased resistance to plectasin as compared to wild-type sensitivity. Wild-type sensitivity was determined by plating approx. 1.0 × 10^7 CFU/ml on TSB agar containing plectasin (S. aureus) and approx. 1.0 × 10^5 CFU/ml on Muller Hinton Broth agar plates (MHB, 212322 Becton Dickinson) with plectasin (L. monocytogenes). Plates were incubated at 37°C for 3 days and inspected for growth. The transposon libraries were screened on TSB agar with 300 μg/ml, 500 or 750 μg/ml plectasin (S. aureus) or MHB plates with 250 μg/ml or 500 μg/ml plectasin (L. monocytogenes) at 37°C for up to 7 days.

L. monocytogenes = experiment: Extracellular protein profile by SDS-PAGE; type: cell-based, Listeria monocytogenes; settings: L. monocytogenes grown with or without plectasin overnight at 37°C in BHI; data not shown
Description: Prewarmed TSB and BHI (25 ml) in a 250 ml Erlenmeyer flask was inoculated with S. aureus strains and L. monocytogenes strains, respectively. These flasks were grown with and without plectasin at 37°C overnight (≈ 17 h) with shaking. The next morning, the exact absorbance at 600 nm of the cultures was measured, and 15 ml of culture was centrifuged to precipitate the cells (6 000 RPM; 7 min; 0°C). The supernatant was transferred to a 50 ml Blue cap bottle (placed in an ice/water bath), and the extracellular proteins were precipitated by adding one volume of ice-cold 96% EtOH and left in the refrigerator overnight for proteins to precipitate. Precipitated proteins were collected by centrifugation (11,000 RPM; 30 min; 0°C). Protein pellets were suspended in a volume of 50 mM Tris-HCl (pH 6.8) adjusted to the original absorbance of the overnight culture so that 15 ml of overnight culture with absorbance at 600 nm of 5.0 was suspended in 0.8 ml of 50 mM Tris-HCl (pH 6.8). A sample of 15 μl of the protein extracts was analysed on NuPAGE® 4-12% Bis-Tris gels (Invitrogen) using the X Cell SureLock® Mini-Cell system (Invitrogen) as recommended by the supplier. The gels were Coomassie stained using GelCode® Blue Stain Reagent (Pierce).

S. aureus = experiment: ATP leakage (intracellular and extracellular ATP, bioluminescence); type: cell-based, Staphylococcus aureus; settings: S. aureus, 500 μg/ml peptide, 50 mM HEPES pH 7.0 with 0.2% glucose, vs peptide dilution buffer; two independent experiments
Description: L. monocytogenes and S. aureus were grown in TSB at 37°C. Bacteria were harvested (10 min at 3000 RPM) at mid-exponential phase (absorbance at 546 nm of 2.5 ± 0.2 and 1.0 ± 0.2 for S. aureus and L. monocytogenes, respectively), washed once in 50 mM potassium phosphate buffer pH 7.0 and once in 50 mM HEPES buffer pH 7.0. The pellet was resuspended in 50 mM HEPES pH 7.0 to a final absorbance at 546 nm of 10. Bacteria were stored on ice and used within 5 hours. […] ATP was determined using a bioluminescence kit (Sigma, FLAA-1KT) and a BioOrbit 1253 luminometer. Total ATP content was determined by rapidly permeabilising 20 μl cell suspension with 80 μl dimethyl sulfoxide. The cell suspension was diluted in 4.9 ml sterile water, and ATP content was determined in 100 μl of the preparation as described by the manufacturer. To determine the extracellular ATP concentration, the 20 μl cell suspension was mixed with 80 μl sterile water and analyzed as described above. Intracellular ATP concentrations were calculated by using the intracellular volumes of 0.85 and 1.7 μm^3 for S. aureus and L. monocytogenes, respectively. The number of cells in suspension was determined by plate spreading.

[1] = system: S. aureus 8325-4 hssR::bursa/pRMC2-hssRS (complementation of hssR transposon mutant); experiment: MIC, microbroth dilution; type: cell-based, Staphylococcus aureus; settings: 8325-4 hssR::bursa/pRMC2-hssRS compared to 8325-4 hssR::bursa, MIC
Description: Protamine was purchased from Sigma (P4020-5G). Plectasin, eurocin, novicidin, and novispirin G10 were supplied by Department of Antiinfective Discovery, Novozymes A/S. The host defence peptides were dissolved in 0.01% acetic acid/0.1% bovine serum albumin (Sigma, A7906).
Minimal inhibitory concentrations (MIC) of plectasin, eurocin, protamine, novicidin, and novispirin G10 were determined using a microbroth dilution method. Colonies from a BHI plate incubated overnight at 37 °C were suspended in MHB pH 7.4 to an absorbance at 546 nm of 0.11-0.12 at 546 nm (approx. 1.0 × 10^8 CFU/ml) and diluted in MHB to a concentration of 5.0 × 10^5 CFU/ml. Ninety μl of bacterial suspension was incubated with 10 μl of peptide solution in polypropylene 96-well plates (Nunc, 442587) for 18-24 h at 37°C. The peptide solutions were made fresh on the day of assay. The range of concentrations assayed were 0.25-256 μg/ml for plectasin and eurocin, 0.125-128 μg/ml for protamine and novispirin G10, and 0.031-32 μg/ml for novicidin. MIC was the lowest peptide concentration at which visual growth was inhibited.

[2] = system: S. aureus 8325-4 hssR mutant; experiment: Growth in TSB with plectasin and/or hemin; type: cell-based, Staphylococcus aureus; settings: plectasin 35 μg/ml, 37°C, absorbance at 600 nm, transduced 8325-4 hssR mutant
Description: (§1) Overnight cultures of S. aureus were diluted to an absorbance at 600 nm of 0.05 in TSB with and without 4 μM hemin and/or 35 μg/ml plectasin and grown at 37°C. Measurements of the absorbance were made every 30 minutes.

[3] = system: S. aureus 8325-4 wild type; experiment: Growth in TSB with plectasin and/or hemin; type: cell-based, Staphylococcus aureus; settings: plectasin 35 μg/ml, 37°C, absorbance at 600 nm
Description: as §1

[4] = system: S. aureus 8325-4 hssR::bursa; experiment: In vitro bacterial killing kinetics; type: cell-based, Staphylococcus aureus; settings: plectasin 1× MIC, TSB, 37°C, CFU after 1, 3 and 5 hours; 8325-4 hssR::bursa mutant
Description: (§2) Overnight cultures of S. aureus wild type […], 8325-4 hssR::bursa and 8325-4 hssR::bursa/pRMC2-hssRS were diluted 1000 fold in TSB and grown 2 hours at 37°C. Samples were taken to time T = 0 and plated for CFU determination. Plectasin (1× MIC) was added, and samples were withdrawn after 1,3 and 5 hours growth at 37°C and plated for CFU determination.

[5] = system: S. aureus 8325-4 wild type; experiment: In vitro bacterial killing kinetics; type: cell-based, Staphylococcus aureus; settings: plectasin 1× MIC, TSB, 37°C, CFU after 1, 3 and 5 hours
Description: as §2

SMILES: CC[C@H](C)[C@@H]1NC(=O)[C@H](CO)NC(=O)[C@H](CCCCN)NC(=O)[C@@H]2CSSC[C@@H](C(=O)N[C@@H](Cc3ccc(O)cc3)C(=O)O)NC(=O)[C@H](CCCCN)NC(=O)[C@@H]3CSSC[C@H](NC(=O)[C@H](CCC(N)=O)NC(=O)[C@H](CCSC)NC(=O)[C@H](CC(=O)O)NC(=O)[C@H](CC(=O)O)NC(=O)[C@H](CCC(=O)O)NC(=O)[C@H](CC(=O)O)NC(=O)[C@H](Cc4c[nH]c5ccccc45)NC(=O)[C@@H]4CCCN4C(=O)CNC(=O)[C@H](CC(N)=O)NC(=O)[C@@H](NC(=O)CNC(=O)[C@H](Cc4ccccc4)NC(=O)CN)CSSC[C@H](NC(=O)[C@H](Cc4ccc(O)cc4)NC(=O)CNC(=O)CNC(=O)[C@H](CCCCN)NC(=O)[C@H](Cc4ccc(O)cc4)NC(=O)CNC(=O)[C@H](CCCCN)NC1=O)C(=O)N[C@@H](C)C(=O)N[C@@H](CCCCN)C(=O)NCC(=O)NCC(=O)N[C@@H](Cc1ccccc1)C(=O)N[C@@H](C(C)C)C(=O)N3)C(=O)N[C@@H](Cc1c[nH]cn1)C(=O)N[C@@H](CC(N)=O)C(=O)N[C@@H](Cc1c[nH]cn1)C(=O)N2 [plectasin]
- Spontaneous mutations leading to changes in sensitivity (S. aureus wild type): no spontaneous mutations
- Abundance of extracellular proteins (L. monocytogenes): no difference in the abundance of extracellular proteins
- ATP leakage (intracellular ATP concentration) (S. aureus): remained at the same level as the controls
- Decrease of resistance by complementation [1]: 2 fold
- Growth in the presence of plectasin [2]: hardly affected the growth
- Growth in the presence of plectasin [3]: inhibited the growth
- Kinetics of bacterial killing in vitro [4]: killed slower than the wild type
- Kinetics of bacterial killing in vitro [5]: killed rapidly

Reference: paper PMC3001719, “The heme sensing response regulator HssR in Staphylococcus aureus but not the homologous RR23 in Listeria monocytogenes modulates susceptibility to the antimicrobial peptide plectasin” (BMC Microbiology, 2010)
